Experimental data as given in PubChem BioAssay (NCI).
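Cells were grown in 96-well plates and exposed to each compound for 48 hours at five concentrations; endpoints were interpolated linearly between bracketing concentrations, or set to the highest concentration if not reached. GI50: concentration for 50% inhibition of growth. At the TGI there is no net growth.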

Experiments:
Assay in all cases: NCI anticancer screen, dose series, 48 h
HCC-2998 colon = system: HCC-2998 colon
M14 melanoma = system: M14 melanoma
SK-OV-3 ovarian = system: SK-OV-3 ovarian
MALME-3M melanoma = system: MALME-3M melanoma
OVCAR-8 ovarian = system: OVCAR-8 ovarian
SNB-75 CNS = system: SNB-75 CNS
SK-MEL-5 melanoma = system: SK-MEL-5 melanoma
HS 578T breast = system: HS 578T breast
MCF7 breast = system: MCF7 breast
NCI/ADR-RES ovarian = system: NCI/ADR-RES ovarian

SMILES | TGI (HCC-2998 colon) | TGI (M14 melanoma) | TGI (SK-OV-3 ovarian) | TGI (MALME-3M melanoma) | TGI (OVCAR-8 ovarian) | TGI (SNB-75 CNS) | TGI (SK-MEL-5 melanoma) | GI50 (HS 578T breast) | TGI (HS 578T breast) | GI50 (MCF7 breast) | TGI (MCF7 breast) | GI50 (HCC-2998 colon) | GI50 (M14 melanoma) | GI50 (SK-OV-3 ovarian) | GI50 (NCI/ADR-RES ovarian) | TGI (NCI/ADR-RES ovarian) | GI50 (MALME-3M melanoma) | GI50 (OVCAR-8 ovarian) | GI50 (SK-MEL-5 melanoma) | GI50 (SNB-75 CNS)
C(=C\c1csnn1)/c1cccnc1 | > 100 µM | > 100 µM | > 100 µM | > 100 µM | > 100 µM | > 100 µM | – | – | – | – | – | – | – | – | – | – | – | – | – | –
CCCCCCCCCCCC(=O)OCC1OC(n2cc(F)c(=O)[nH]c2=O)C(N)C(OC(=O)CCCCCCCCCCC)C1O (stereo not drawn) | > 100 µM | > 100 µM | > 100 µM | > 100 µM | > 100 µM | > 100 µM | 30.5 µM | – | – | – | – | – | – | – | – | – | – | – | – | –
COc1ccc2c3c1C(=O)CCC3CO2 (stereo not drawn) | > 100 µM | > 100 µM | > 100 µM | > 100 µM | > 100 µM | – | > 100 µM | – | – | – | – | – | – | – | – | – | – | – | – | –
COc1cc2c(c(OC)c1OC)-c1[nH]ncc1CC2 | > 100 µM | > 100 µM | > 100 µM | > 100 µM | > 100 µM | > 100 µM | > 100 µM | – | – | – | – | – | – | – | – | – | – | – | – | –
O=c1ccccc2cccc(O)c12 | > 100 µM | > 100 µM | > 100 µM | – | > 100 µM | > 100 µM | > 100 µM | – | – | – | – | – | – | – | – | – | – | – | – | –
O=C1CCCC/C1=C/C=C/c1ccccc1 | > 100 µM | > 100 µM | > 100 µM | > 100 µM | > 100 µM | > 100 µM | > 100 µM | – | – | – | – | – | – | – | – | – | – | – | – | –
CCOC(=O)/N=C(\N)SCc1ccccc1 | > 100 µM | > 100 µM | > 100 µM | > 100 µM | > 100 µM | > 100 µM | > 100 µM | – | – | – | – | – | – | – | – | – | – | – | – | –
Nc1ccc(Nc2nc(F)nc(-c3c4ccccc4c4n3CCS4)n2)cc1 | 44.8 µM | 31.6 µM | 31.1 µM | 31.6 µM | 37.8 µM | 31 µM | 25.8 µM | – | – | – | – | – | – | – | – | – | – | – | – | –
COc1ccc(-c2n[nH]nc2-c2csc3ccccc23)cc1OC | 19.4 µM | 15.6 µM | 19.3 µM | 62.1 µM | 39.1 µM | – | 8.79 µM | 2.25 µM | 10.6 µM | 1450 nM | 15.1 µM | 4.21 µM | 1950 nM | 2.37 µM | 2.39 µM | 23.2 µM | 13.3 µM | 4.24 µM | 2.83 µM | –
COc1ccc2[nH]cc(-c3nc(-c4cn(C)c5ccncc45)cs3)c2c1 | 3.42 µM | 3.24 µM | 33.7 µM | 3.65 µM | 4.94 µM | 29 µM | 3.04 µM | 14.7 µM | 41.6 µM | 1810 nM | 3.65 µM | 1.88 µM | 1750 nM | 19.4 µM | – | – | 2.11 µM | 2.19 µM | 1.64 µM | 15.3 µM
Cc1c(C(=O)/C=C/c2ccc(Cl)cc2)[n+](=O)c2ccccc2n1[O-] | 24.5 µM | 31.5 µM | 47.6 µM | 38.1 µM | 23.3 µM | 40.7 µM | – | – | – | – | – | – | – | – | – | – | – | – | – | –
N#Cc1ccccc1C#C/C=C\C#Cc1ccc(OCCCNC(=O)c2cc3ccccc3[nH]2)cc1 | > 100 µM | > 100 µM | 54.5 µM | 34.8 µM | 36.9 µM | 42.6 µM | 20.2 µM | – | – | 33400 nM | > 100 µM | 74.9 µM | 21800 nM | 19.3 µM | 23.5 µM | > 100 µM | 14 µM | 16.2 µM | 4.24 µM | 17.9 µM
Cn1c(CCC#N)nc2ccc(Br)cc2c1=O | > 100 µM | > 100 µM | > 100 µM | > 100 µM | > 100 µM | > 100 µM | > 100 µM | – | – | – | – | – | – | – | – | – | – | – | – | –
CC(=O)O[C@@H]1CO[C@H]2O[C@H]3[C@@H](C(C=O)=C[C@H](O)[C@@H]4C5=C(C(C)C)CC[C@]5(C)CC[C@@]34C)[C@@]2(O)C1=O | 1.27 µM | 0.723 µM | – | 0.347 µM | 0.52 µM | 1.35 µM | 0.577 µM | – | 0.594 µM | – | 1.69 µM | – | – | – | – | 1.06 µM | – | – | – | –
O=C(OCCOCBr)c1ccccc1 | > 100 µM | > 100 µM | > 100 µM | > 100 µM | > 100 µM | > 100 µM | > 100 µM | – | – | – | – | – | – | – | – | – | – | – | – | –
CCCCC(=O)N/N=C/c1cc(I)cc(I)c1O | > 100 µM | 14.8 µM | 20.7 µM | – | 13.3 µM | 26.5 µM | 15.3 µM | 7.92 µM | 54.4 µM | 2720 nM | 14.6 µM | 11.1 µM | 2700 nM | 3.4 µM | 2.58 µM | 20.1 µM | – | 2.26 µM | 3.22 µM | 6.03 µM
O=[N+]([O-])c1ccccc1N=Nc1c(O)[nH]c2ccccc12 | > 100 µM | > 100 µM | > 53.7 µM | – | > 53.5 µM | 68.8 µM | > 86.2 µM | – | > 100 µM | – | > 100 µM | – | – | – | – | > 58.8 µM | – | – | – | –
O=C(O)C1C2CC3C(OC(=O)C31)C2Br (stereo not drawn) | – | > 100 µM | > 100 µM | > 100 µM | > 100 µM | > 100 µM | > 100 µM | – | > 100 µM | – | > 100 µM | – | – | – | – | > 100 µM | – | – | – | –
COc1ccc(C(c2ccc(C(C)C)cc(=O)c2O)c2c(O)cc3oc(-c4ccccc4)cc(=O)c3c2O)cc1 (stereo not drawn) | 33.6 µM | 22.2 µM | 55.4 µM | – | > 100 µM | > 100 µM | 29.4 µM | – | – | – | – | – | – | – | – | – | – | – | – | –
O=C(O)/C(=C/c1ccccc1[N+](=O)[O-])c1ccccc1 | > 100 µM | > 100 µM | > 100 µM | – | > 100 µM | > 100 µM | > 100 µM | – | – | – | – | – | – | – | – | – | – | – | – | –
C=CC1CC12C(=O)C1OC2(C)C2C(=O)c3c(ccc4c3ccc3ccccc34)C(=O)C12 (stereo not drawn) | > 100 µM | > 100 µM | > 100 µM | > 100 µM | > 100 µM | > 100 µM | – | 68.1 µM | > 100 µM | 34200 nM | > 100 µM | 94.6 µM | 67300 nM | > 100 µM | 74.9 µM | > 100 µM | 16.8 µM | 64.6 µM | – | > 100 µM
Nc1cc(-c2ccccc2)ccc1O | – | > 100 µM | > 100 µM | > 100 µM | > 100 µM | > 100 µM | > 100 µM | – | – | > 100000 nM | > 100 µM | – | > 100000 nM | > 100 µM | 45 µM | > 100 µM | > 100 µM | > 100 µM | > 100 µM | > 100 µM
